Source: patent US20230148214A1, “INDAZOLES AND AZAINDAZOLES AS LRRK2 INHIBITORS” (ESCAPE Bio, Inc., priority 2020, published 2023)

Key:
LRRK2 WT = molecular target: T1, LRRK2 WT (Homo sapiens, UniProt Q5S007); experiment: LRRK2 Kinase Activity Assay (LanthaScreen TR-FRET), wild type; type: biochemical; settings: recombinant wild type LRRK2, 25 μM ATP, 400 nM LRRKtide, 60 min; class symbols
T1 construct: purchased Life Technologies PR8604B
In short: (§1)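 Recombinant wild-type or G2019S LRRK2 incubated with fluorescein-labeled LRRKtide (ERM-based) peptide, ATP and serially diluted compound for 60 min at room temperature.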

LRRK2 G2019S = molecular target: T2, LRRK2 G2019S (Homo sapiens, UniProt Q5S007, G2019S); experiment: LRRK2 Kinase Activity Assay (LanthaScreen TR-FRET), G2019S; type: biochemical; settings: recombinant G2019S-LRRK2, 25 μM ATP, 400 nM LRRKtide, 60 min; class symbols
T2 construct: purchased Life Technologies PV4881
In short: as §1

T1 sequence (Q5S007 whole entry): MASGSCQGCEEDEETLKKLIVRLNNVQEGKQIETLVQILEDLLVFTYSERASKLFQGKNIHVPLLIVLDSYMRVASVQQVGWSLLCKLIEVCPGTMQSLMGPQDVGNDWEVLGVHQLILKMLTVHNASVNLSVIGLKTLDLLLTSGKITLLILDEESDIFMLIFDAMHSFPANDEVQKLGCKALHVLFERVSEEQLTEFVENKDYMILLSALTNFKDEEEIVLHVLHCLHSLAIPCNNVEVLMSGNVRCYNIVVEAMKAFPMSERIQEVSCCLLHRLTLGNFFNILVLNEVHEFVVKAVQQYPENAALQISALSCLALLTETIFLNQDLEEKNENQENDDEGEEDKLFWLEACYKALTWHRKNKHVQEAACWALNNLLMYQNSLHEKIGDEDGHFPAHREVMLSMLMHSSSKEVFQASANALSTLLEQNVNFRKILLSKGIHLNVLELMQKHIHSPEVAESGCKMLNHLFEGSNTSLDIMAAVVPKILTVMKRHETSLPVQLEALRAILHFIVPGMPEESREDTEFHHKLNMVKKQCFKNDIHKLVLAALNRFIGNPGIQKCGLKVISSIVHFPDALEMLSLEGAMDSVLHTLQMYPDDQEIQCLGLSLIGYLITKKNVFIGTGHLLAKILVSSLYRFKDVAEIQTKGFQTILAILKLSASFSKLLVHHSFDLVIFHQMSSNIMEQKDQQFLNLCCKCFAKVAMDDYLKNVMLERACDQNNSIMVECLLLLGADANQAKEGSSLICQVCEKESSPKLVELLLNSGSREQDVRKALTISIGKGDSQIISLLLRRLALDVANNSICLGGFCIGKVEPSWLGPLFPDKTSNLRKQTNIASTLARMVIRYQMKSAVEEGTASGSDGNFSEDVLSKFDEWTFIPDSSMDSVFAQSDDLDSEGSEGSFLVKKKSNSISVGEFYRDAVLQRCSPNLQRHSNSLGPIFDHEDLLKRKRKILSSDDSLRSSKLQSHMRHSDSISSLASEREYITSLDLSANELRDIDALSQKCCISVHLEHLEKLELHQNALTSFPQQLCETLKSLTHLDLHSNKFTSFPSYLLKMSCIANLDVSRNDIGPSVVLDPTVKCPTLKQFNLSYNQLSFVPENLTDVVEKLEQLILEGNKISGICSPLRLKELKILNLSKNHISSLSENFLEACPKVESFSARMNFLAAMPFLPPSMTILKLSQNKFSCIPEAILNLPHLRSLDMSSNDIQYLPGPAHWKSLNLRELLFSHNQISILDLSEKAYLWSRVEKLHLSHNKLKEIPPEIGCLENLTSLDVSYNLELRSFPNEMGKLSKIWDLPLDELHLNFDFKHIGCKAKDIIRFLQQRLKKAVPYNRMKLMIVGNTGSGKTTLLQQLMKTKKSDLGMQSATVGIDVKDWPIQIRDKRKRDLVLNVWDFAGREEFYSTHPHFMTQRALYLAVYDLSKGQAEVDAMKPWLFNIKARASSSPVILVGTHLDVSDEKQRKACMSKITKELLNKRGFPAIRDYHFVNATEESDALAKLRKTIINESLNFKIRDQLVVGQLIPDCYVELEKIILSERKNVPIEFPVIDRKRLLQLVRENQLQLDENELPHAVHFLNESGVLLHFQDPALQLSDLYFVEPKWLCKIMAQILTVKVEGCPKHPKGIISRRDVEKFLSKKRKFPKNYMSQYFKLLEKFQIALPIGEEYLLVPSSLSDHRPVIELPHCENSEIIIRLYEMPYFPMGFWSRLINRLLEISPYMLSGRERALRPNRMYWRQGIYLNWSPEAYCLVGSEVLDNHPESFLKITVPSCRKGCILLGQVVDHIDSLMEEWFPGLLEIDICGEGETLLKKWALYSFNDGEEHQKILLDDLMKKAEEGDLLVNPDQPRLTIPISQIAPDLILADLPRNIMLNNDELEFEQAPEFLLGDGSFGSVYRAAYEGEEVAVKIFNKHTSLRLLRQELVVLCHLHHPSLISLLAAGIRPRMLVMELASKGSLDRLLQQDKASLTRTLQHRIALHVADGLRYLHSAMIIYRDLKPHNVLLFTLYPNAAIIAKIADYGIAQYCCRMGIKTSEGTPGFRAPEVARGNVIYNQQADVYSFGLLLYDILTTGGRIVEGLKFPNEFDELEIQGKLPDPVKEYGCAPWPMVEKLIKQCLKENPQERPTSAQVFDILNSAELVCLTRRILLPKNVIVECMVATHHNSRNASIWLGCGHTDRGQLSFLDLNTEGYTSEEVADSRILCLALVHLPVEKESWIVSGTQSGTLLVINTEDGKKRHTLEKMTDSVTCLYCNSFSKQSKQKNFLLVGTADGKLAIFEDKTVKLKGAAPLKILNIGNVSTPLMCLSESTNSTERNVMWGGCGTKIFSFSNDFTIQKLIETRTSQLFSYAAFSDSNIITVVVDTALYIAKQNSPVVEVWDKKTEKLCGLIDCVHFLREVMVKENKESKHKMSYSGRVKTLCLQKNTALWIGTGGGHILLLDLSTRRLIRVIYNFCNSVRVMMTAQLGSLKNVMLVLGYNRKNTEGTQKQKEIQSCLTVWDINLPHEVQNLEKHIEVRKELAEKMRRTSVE
T2 sequence (Q5S007 whole entry G2019S): as the sequence (Q5S007 whole entry) above, with G2019S counted along it

SMILES | IC50 (LRRK2 WT) | IC50 (LRRK2 G2019S)
N#Cc1cnc2c(c1)CCC[C@@H]2Nc1ccc2[nH]nc(Br)c2c1 (single isomer, unassigned) [Example 125, enantiomer 1, 8-((3-Bromo-1H-indazol-5-yl)amino)-5,6,7,8-tetrahydroquinoline-3-carbonitrile] | 100 to 1000 nM | < 100 nM
N#Cc1cnc2c(c1)CCC[C@@H]2Nc1ccc2[nH]nc(Br)c2c1 (single isomer, unassigned) [Example 125, enantiomer 2, 8-((3-Bromo-1H-indazol-5-yl)amino)-5,6,7,8-tetrahydroquinoline-3-carbonitrile] | 1000 to 10000 nM | 100 to 1000 nM
N#Cc1cnc2c(c1)CCC[C@@H]2Nc1ccc2[nH]nc(Cl)c2c1 (single isomer, unassigned) [Example 126, enantiomer 1, 8-((3-Chloro-1H-indazol-5-yl)amino)-5,6,7,8-tetrahydroquinoline-3-carbonitrile] | 1000 to 10000 nM | 1000 to 10000 nM
N#Cc1cnc2c(c1)CCC[C@@H]2Nc1ccc2[nH]nc(Cl)c2c1 (single isomer, unassigned) [Example 126, enantiomer 2, 8-((3-Chloro-1H-indazol-5-yl)amino)-5,6,7,8-tetrahydroquinoline-3-carbonitrile] | 100 to 1000 nM | < 100 nM
Cc1c(C#N)ccc2c1CC[C@@H]2Nc1ccc2[nH]nc(I)c2c1 (single isomer, unassigned) [Example 127, enantiomer 1, 1-((3-Iodo-1H-indazol-5-yl)amino)-4-methyl-2,3-dihydro-1H-indene-5-carbonitrile] | 100 to 1000 nM | 100 to 1000 nM
N#Cc1ccc2c(c1)CC[C@H]2Nc1ccc2[nH]nc(I)c2c1 (single isomer, unassigned) [Example 128, enantiomer 1, 1-((3-Iodo-1H-indazol-5-yl)amino)-2,3-dihydro-1H-indene-5-carbonitrile] | 100 to 1000 nM | 100 to 1000 nM
N#Cc1ccc2c(c1)CC[C@H]2Nc1ccc2[nH]nc(I)c2c1 (single isomer, unassigned) [Example 128, enantiomer 2, 1-((3-Iodo-1H-indazol-5-yl)amino)-2,3-dihydro-1H-indene-5-carbonitrile] | 100 to 1000 nM | < 100 nM
Cc1n[nH]c2ccc(N[C@H]3CCc4c(C#N)cccc43)cc12 (single isomer, unassigned) [Example 129, enantiomer 1, 1-((3-Methyl-1H-indazol-5-yl)amino)-2,3-dihydro-1H-indene-4-carbonitrile] | 1000 to 10000 nM | 100 to 1000 nM
Cc1n[nH]c2ccc(N[C@H]3CCc4ccc(C#N)cc43)cc12 (single isomer, unassigned) [Example 130, enantiomer 1, 3-((3-Methyl-1H-indazol-5-yl)amino)-2,3-dihydro-1H-indene-5-carbonitrile] | 1000 to 10000 nM | 100 to 1000 nM
Cc1n[nH]c2ccc(N[C@H]3CCc4ccc(C#N)cc43)cc12 (single isomer, unassigned) [Example 130, enantiomer 2, 3-((3-Methyl-1H-indazol-5-yl)amino)-2,3-dihydro-1H-indene-5-carbonitrile] | 100 to 1000 nM | < 100 nM
Cc1cc(C#N)cc2c1[C@@H](Nc1ccc3[nH]nc(-c4cnco4)c3c1)CC2 (single isomer, unassigned) [Example 131, enantiomer 1, 7-Methyl-1-((3-(oxazol-5-yl)-1H-indazol-5-yl)amino)-2,3-dihydro-1H-indene-5-carbonitrile] | < 100 nM | < 100 nM
N#Cc1cc(F)c2c(c1)CC[C@H]2Nc1ccc2[nH]nc(-c3cnco3)c2c1 (single isomer, unassigned) [Example 132, enantiomer 1, 5-((5-Cyano-7-fluoro-2,3-dihydro-1H-inden-1-yl)amino)-3-(oxazol-5-yl)-1H-indazol-2-ium] | < 100 nM | < 100 nM
N#Cc1ccc2c(n1)CCC[C@H]2Oc1ccc2[nH]nc(C3CC3)c2c1 (single isomer, unassigned) [Example 133, enantiomer 1, 5-((3-Cyclopropyl-1H-indazol-5-yl)oxy)-5,6,7,8-tetrahydroquinoline-2-carbonitrile] | 1000 to 10000 nM | 100 to 1000 nM
N#Cc1ccc2c(n1)CCC[C@H]2Oc1ccc2[nH]nc(C3CC3)c2c1 (single isomer, unassigned) [Example 133, enantiomer 2, 5-((3-Cyclopropyl-1H-indazol-5-yl)oxy)-5,6,7,8-tetrahydroquinoline-2-carbonitrile] | 1000 to 10000 nM | < 100 nM
N#Cc1ccc2c(c1)CC[C@@H]2Nc1ccc2[nH]nc(C3CC3)c2c1 (single isomer, unassigned) [Example 134, enantiomer 1, 1-((3-Cyclopropyl-1H-indazol-5-yl)amino)-2,3-dihydro-1H-indene-5-carbonitrile] | 1000 to 10000 nM | 100 to 1000 nM
N#Cc1ccc2c(c1)CC[C@@H]2Nc1ccc2[nH]nc(C3CC3)c2c1 (single isomer, unassigned) [Example 134, enantiomer 2, 1-((3-Cyclopropyl-1H-indazol-5-yl)amino)-2,3-dihydro-1H-indene-5-carbonitrile] | 1000 to 10000 nM | 100 to 1000 nM

The remaining lines, values ahead:

IC50 (LRRK2 WT) | IC50 (LRRK2 G2019S) | SMILES
100 to 1000 nM | < 100 nM | N#Cc1ccc2c(n1)CCC[C@@H]2Oc1ccc2[nH]nc(I)c2c1 (single isomer, unassigned) [Example 135, enantiomer 1, 5-((3-Iodo-1H-indazol-5-yl)oxy)-5,6,7,8-tetrahydroquinoline-2-carbonitrile]
100 to 1000 nM | < 100 nM | N#Cc1ccc2c(n1)CCC[C@@H]2Oc1ccc2[nH]nc(I)c2c1 (single isomer, unassigned) [Example 135, enantiomer 2, 5-((3-Iodo-1H-indazol-5-yl)oxy)-5,6,7,8-tetrahydroquinoline-2-carbonitrile]
100 to 1000 nM | < 100 nM | N#Cc1cnc2c(c1)CCC[C@@H]2Oc1ccc2[nH]nc(C3CC3)c2c1 (single isomer, unassigned) [Example 136, enantiomer 1, 8-((3-Cyclopropyl-1H-indazol-5-yl)oxy)-5,6,7,8-tetrahydroquinoline-3-carbonitrile]
< 100 nM | < 100 nM | N#Cc1cnc2c(c1)CCC[C@@H]2Oc1ccc2[nH]nc(I)c2c1 (single isomer, unassigned) [Example 137, enantiomer 1, 8-((3-Iodo-1H-indazol-5-yl)oxy)-5,6,7,8-tetrahydroquinoline-3-carbonitrile]
100 to 1000 nM | < 100 nM | N#Cc1cnc2c(c1)CCC[C@@H]2Oc1ccc2[nH]nc(I)c2c1 (single isomer, unassigned) [Example 137, enantiomer 2, 8-((3-Iodo-1H-indazol-5-yl)oxy)-5,6,7,8-tetrahydroquinoline-3-carbonitrile]
< 100 nM | < 100 nM | N#Cc1ccc2c(c1)C(F)(F)C[C@@H]2Nc1ccc2[nH]nc(-c3cnco3)c2c1 (single isomer, unassigned) [Example 138, enantiomer 1, 3,3-Difluoro-1-((3-(oxazol-5-yl)-1H-indazol-5-yl)amino)-2,3-dihydro-1H-indene-5-carbonitrile]
100 to 1000 nM | < 100 nM | N#Cc1ccc2c(c1)C(F)(F)C[C@@H]2Nc1ccc2[nH]nc(-c3cnco3)c2c1 (single isomer, unassigned) [Example 138, enantiomer 2, 3,3-Difluoro-1-((3-(oxazol-5-yl)-1H-indazol-5-yl)amino)-2,3-dihydro-1H-indene-5-carbonitrile]
1000 to 10000 nM | 1000 to 10000 nM | N#Cc1ccc2c(c1)CCC[C@@H]2Nc1ccc2[nH]nc(CC3CC3)c2c1 (single isomer, unassigned) [Example 139, enantiomer 1, 5-((3-(Cyclopropylmethyl)-1H-indazol-5-yl)amino)-5,6,7,8-tetrahydronaphthalene-2-carbonitrile]
1000 to 10000 nM | < 100 nM | N#Cc1ccc2c(c1)CCC[C@@H]2Nc1ccc2[nH]nc(CC3CC3)c2c1 (single isomer, unassigned) [Example 139, enantiomer 2, 5-((3-(Cyclopropylmethyl)-1H-indazol-5-yl)amino)-5,6,7,8-tetrahydronaphthalene-2-carbonitrile]
100 to 1000 nM | < 100 nM | N#Cc1ccc2c(c1)C1(CC1)C[C@@H]2Nc1ccc2[nH]nc(-c3cnco3)c2c1 (single isomer, unassigned) [Example 140, enantiomer 1, 3′-((3-(Oxazol-5-yl)-1H-indazol-5-yl)amino)-2′,3′-dihydrospiro[cyclopropane-1,1′-indene]-6′-carbonitrile]
100 to 1000 nM | < 100 nM | N#Cc1ccc2c(c1)C1(CC1)C[C@@H]2Nc1ccc2[nH]nc(-c3cnco3)c2c1 (single isomer, unassigned) [Example 140, enantiomer 2, 3′-((3-(Oxazol-5-yl)-1H-indazol-5-yl)amino)-2′,3′-dihydrospiro[cyclopropane-1,1′-indene]-6′-carbonitrile]
< 100 nM | < 100 nM | N#Cc1cnc2c(c1)CCC[C@@H]2Oc1ccc2[nH]nc(-c3cnn(C(F)F)c3)c2c1 (single isomer, unassigned) [Example 141, enantiomer 1, 8-((3-(1-(Difluoromethyl)-1H-pyrazol-4-yl)-1H-indazol-5-yl)oxy)-5,6,7,8-tetrahydroquinoline-3-carbonitrile]
100 to 1000 nM | < 100 nM | N#Cc1cnc2c(c1)CCC[C@@H]2Nc1ccc2[nH]nc(-c3cncs3)c2c1 (single isomer, unassigned) [Example 142, enantiomer 1, 8-((3-(Thiazol-5-yl)-1H-indazol-5-yl)amino)-5,6,7,8-tetrahydroquinoline-3-carbonitrile]
